# Measurements published in patent publication US5688670A, “Self-modifying RNA molecules and methods of making” (The General Hospital Corporation, priority 1994, dated 1997).
# “And” between values parts separate entries of the source, which are not always exact repeats. Identical values can stand only once.
# Experiments:
# [1] = test system: BL8-6 self-biotinylating ribozyme (SEQ ID NO: 91); assay: self-biotinylation time course; format: biochemical; details: in the presence of 200 μM BIE
# Method: The rate of self-biotinylation was determined by a time course experiment. ^32 P-labelled RNA was first resuspended in incubation buffer (100 mM KCl, 10 mM Na-Hepes, pH 7.4, 5 mM MgCl2) and allowed to equilibrate for 10 minutes at room temperature. 200 μM BIE was added to the mixture and aliquots were subsequently removed after 0 to 120 minutes of incubation. Samples were quenched and affinity purified as described in Haugland, Molecular Probes Handbook of Fluoprescent Probes and Research Chemicals. Aliquots were counted in a scintillation counter following ethanol precipitation (total RNA count) and following binding to streptavidin agarose (product RNA count); the ratio of these two counts is the fraction reacted. Optimizing enzymatic activity: It seemed likely that the original RNA pool from which the BL8-6 ribozyme was derived might not saturate the space of biotin-ligating ribozymes. To test the possibility that appropriate additional mutations to the BL8-6 sequence might increase its catalytic activity, a third RNA pool was generated based on its sequence but with non-wild-type nucleotides substituted at each position with 30% probability (FIG. 8D) (using methods described above). […] After eight rounds of selection (ending with a 1 minute incubation period at 10 μM BIE), active clones from the pool were sequenced and assayed for catalytic activity.
# [2] = test system: BL2.8-7 self-biotinylating ribozyme (re-selected from BL8-6); assay: self-biotinylation time course; format: biochemical
# Method: The rate of self-biotinylation was determined by a time course experiment. ^32 P-labelled RNA was first resuspended in incubation buffer (100 mM KCl, 10 mM Na-Hepes, pH 7.4, 5 mM MgCl2) and allowed to equilibrate for 10 minutes at room temperature. […] Samples were quenched and affinity purified as described in Haugland, Molecular Probes Handbook of Fluoprescent Probes and Research Chemicals. Aliquots were counted in a scintillation counter following ethanol precipitation (total RNA count) and following binding to streptavidin agarose (product RNA count); the ratio of these two counts is the fraction reacted. Optimizing enzymatic activity: It seemed likely that the original RNA pool from which the BL8-6 ribozyme was derived might not saturate the space of biotin-ligating ribozymes. […]
# The background rate of guanosine alkylation by BIE was determined by two independent methods. […] To characterize the functional cores of the two molecules, we analyzed the sequences of active clones isolated from the two mutagenized RNA pools generated from the biotin aptamer and self-alkylating ribozyme sequences. […] Approximately thirty individual RNAs from each of these subcloned pools were sequenced and analyzed to determine which nucleotide positions were conserved and which pairs of nucleotides covaried to maintain Watson-Crick base pairing. […]
# [3] = test system: polynucleotide kinase ribozyme Class III (Kin.42); assay: kinetic analysis of auto-thiophosphorylation by kinase ribozyme; format: biochemical; details: 6 ATP-γ-S concentrations
# Method: (§1) Because the random pool initially prepared sampled sequence space very sparsely (there are between 4^100 and 10^60 possible 100-mers, but only approximately 10^16 different molecules in the pool), active molecules are likely to be sub-optimal catalysts. Accordingly, three cycles of mutagenic PCR (before selection cycles 7, 8, and 9) were performed to allow the evolution of improvements in the active molecules. Mutagenic PCR was performed as described by Bartel and Szostak (Science, 61:1411, 1993) and by Cadwell and Joyce (PCR Methods Appl., 28, 1992). Briefly, thirty total cycles of PCR were done at each round to yield - 2% mutagenesis. Reactions of pool RNAs were performed either with trace ATP-γ-^35 S, or with 100 μM ATP-γ-S plus additional trace ATP-γ-^35 S. Dithiothreitol (DTT, 10 mM) was included in the reactions. Reactions were quenched by the addition of one volume of 150 mM EDTA, 20 mM DTT in 95% formamide. Reactions were analyzed by electrophoresis on 10% polyacrylamide/8M urea gels. Quantitation was performed using a PhosphorImager (Molecular Dynamics). A known amount of ATP-γ-^35 S was spotted on the gels as a standard. The combined effect of increasing the stringency and performing mutagenic PCR was to increase the activity of the pool by nearly three orders of magnitude from cycle 6 to cycle 13 (FIG. 4).
# (§2) Rates for each clone were determined (as described herein) at 6 different ATP-γ-S concentrations, ranging from 2 μM-[…].
# [4] = test system: polynucleotide kinase ribozyme Class IV (Kin.44); assay: as above; format: biochemical; details: 6 ATP-γ-S concentrations
# Method: as §1, §2
# [5] = test system: polynucleotide kinase ribozyme Class II (Kin.25); assay: as above; format: biochemical
# Method: as §1, §2
# [6] = molecular target: ATP-40-1 RNA (40-nucleotide ATP aptamer); assay: equilibrium gel filtration (solution Kd); format: binding
# Method: (§3) Isocratic elution (Arnold et al., J. Chromatography 31:1, 1986) from ATP-agarose and equilibrium gel filtration (Fersht, in Enzyme Structure and Mechanism p. 186-188, Freeman, New York, 1985) was used to measure the dissociation constant for the RNA-ATP complex on the column and in solution. […] The Kd for the ATP-agarose complex is an upper estimate, because the fraction of bound ATP that is accessible to the RNA is not known. The solution Kd for adenosine was similar to that of ATP (5-8 μM), but the Kd for dATP was not measurable (>1 mM). The Kd of ATP-40-1 for its ligand dropped to 2 μM when the Mg^+2 concentration was raised from 5 to 20 mM. Changing the base pair U18-A33 to C-G, as found in most of the clones initially selected, further decreased the Kd to 0.7 μM. At almost saturating concentrations of ATP (50 μM), the RNA bound ~0.7 equivalents of ATP. The RNA likely binds its ligands with a stoichiometry of unit.
# [7] = molecular target: ATP-40-1 RNA (40-nucleotide ATP aptamer); assay: isocratic elution from ATP-C8-agarose column; format: binding; details: upper estimate, 5 mM Mg
# Method: as §3
# [8] = molecular target: Class III aptamer RNA (ATP aptamer region of Class III kinase ribozyme); assay: binding of kinase-class aptamer region RNA to C-8 linked ATP agarose; details: no detectable interaction with ATP agarose
# Text: (§4) Either the right or left hand stems of the Class II, VI and VII aptamer regions appear to be missing, and it seems likely that these molecules have found novel modes of binding their substrates. Using run-off transcription of synthetic DNA oligonucleotides (Milligan and Uhlenbeck, Methods Enzymol. 180:51, 1989) the RNAs corresponding to the Class I, III, IV, and V aptamer regions were produced. The Class IV aptamer RNA binds weakly to C-8 linked ATP agarose (Sassanfar and Szostak, supra), consistent with a molecule having a Kd for ATP in the range of 0.05-0.5 mM. […] Presumably, the corresponding classes of kinases have developed novel modes of binding ATP-γ-S.
# [9] = molecular target: Class I aptamer RNA (ATP aptamer region of Class I kinase ribozyme); assay: as above; details: no detectable interaction with ATP agarose
# Text: as §4
# [10] = molecular target: ATP-binding RNA clone 3 (C8-ATP-3, full-length 164-nucleotide RNA); assay: binding of individual eighth-cycle clones to ATP-agarose; details: read-out: dissociation constant (Kd)
# Method: (§5) A chemically synthesized pool of DNA molecules containing a central region of 120 random nucleotides 5 flanked by constant regions used as primer binding sites was PCR-amplified and transcribed in vitro by T7 RNA polymerase in the presence of [α-^32 P][…]. RNA was ethanol-precipitated and unincorporated nucleotides removed by Sephadex-G50 chromatography. Following a brief incubation at 65° C. in binding buffer (300 mM NaCl, 20 Mm Tris, pH 7.6, 5 mM MgCl2), the RNA was cooled to room temperature before being loaded onto a 1-ml ATP agarose affinity column. […] After washing with 6 column-volumes of binding buffer, bound RNAs were eluted with 3 column-volumes of binding buffer containing 4 mM ATP, then concentrated by precipitation with ethanol. For the first three cycles, an agarose pre-column was used to prevent enrichment of the RNA pool with agarose-binding RNAs, and bound RNAs were eluted with 5 mM EDTA in water rather than affinity-eluted with ATP. After reverse transcription and PCR amplification, DNA templates were transcribed and the resulting RNA was used in the next round of selection. RNA from the eighth round of selection was converted to cDNA, amplified as double-stranded DNA by PCR, digested with EcoR1 and BamHl gel-purified and cloned into the phage M13 based vector pGem3Z (Promega, Madison, Wis.).
# (§6) Thirty-nine clones from the eighth cycle RNA population were sequenced seventeen different sequences were found. Of these, the most abundant sequence (C8-ATP-3) occurred 14 times, and 12 sequences occurred just once. […] Clones 2, 3, 8, 15, and 19 were individually tested for binding to ATP-agarose.
# [11] = test system: ATP-binding RNA clone 15 (C8-ATP-15); assay: as above
# Method: as §5, §6
# [12] = molecular target: ATP-binding RNA clone 2 (C8-ATP series, eighth cycle RNA population); assay: as above; details: read-out: dissociation constant (Kd)
# Method: as §5, §6
# [13] = molecular target: ATP-binding RNA clone 19 (C8-ATP series, eighth cycle RNA population); assay: as above; details: read-out: dissociation constant (Kd)
# Method: as §5, §6
# [14] = molecular target: ATP-binding RNA clone 8 (C8-ATP series, eighth cycle RNA population); assay: as above; details: read-out: dissociation constant (Kd)
# Method: as §5, §6
# [15] = molecular target: ATP-40-1 RNA variant, base pair U18-A33 changed to C-G; assay: Kd of ATP aptamer variant; format: binding; details: further decrease after raising Mg+2 to 20 mM
# Method: as §3
# [16] = auto-thiophosphorylation, 6 ATP-γ-S concentrations
# [17] = equilibrium gel filtration, 5 mM Mg, read-out: Kd (solution)
structure (smiles),measurement,setting,value
"O=C(CI)NCCNC(=O)CCCC[C@@H]1SC[C@@H]2NC(=O)N[C@@H]21 [BIE, N-biotinoyl-N'-iodoacetylethylenediamine]",rate of self-biotinylation,[1],0.001 min⁻¹
same,rate of self-biotinylation,[2]; in the presence of 100 μM BIE,0.05 min⁻¹
same,catalyzed biotinylation rate,[2]; time course experiment,approximately 8 s^-1 M^-1
Nc1ncnc2c1ncn2[C@@H]1O[C@H](COP(=O)(O)OP(=O)(O)OP(O)(O)=S)[C@@H](O)[C@H]1O [ATP-γ-S],Km,[3],50 µM and 58 µM
same,kcat,[3],0.0012 ± 8.3e-05 s⁻¹ and 0.00167 ± 0.000267 s⁻¹
same,kcat,[4],0.0005 ± 1.7e-05 s⁻¹
same,Km,[5]; [16],41 µM and 42 µM
same,kcat,[5]; [16],0.00333 ± 0.00033 s⁻¹ and 0.0055 ± 0.00033 s⁻¹
same,kcat/Km,[5]; self-phosphorylation,100 M⁻¹ s⁻¹
same,kcat,"[5]; self-phosphorylation, approximate value",approximately 0.3 min^-1
Nc1ncnc2c1ncn2[C@H]1C[C@H](O)[C@@H](COP(=O)(O)OP(=O)(O)OP(=O)(O)O)O1 [dATP],Kd,"[6]; not measurable, read-out: Kd (solution)",> 1000 µM
Nc1ncnc2c1ncn2[C@@H]1O[C@H](COP(=O)(O)OP(=O)(O)OP(=O)(O)O)[C@@H](O)[C@H]1O [ATP],Kd,[7],~14 µM
same,Kd,"[6]; Mg+2 concentration raised from 5 to 20 mM, method not stated, read-out: Kd",2 µM
same,Kd,[6]; [17],6 to 8 µM
same,Kd,[8],> 500 µM
same,Kd,[9],> 500 µM
same,Kd,[10],< 50 µM
same,estimated Kd,[11],~ 250 μM
same,Kd,[12],< 50 µM
same,Kd,[13],< 50 µM
same,Kd,[14],< 50 µM
same,Kd,[15],0.7 µM
Nc1ncnc2c1ncn2[C@@H]1O[C@H](CO)[C@@H](O)[C@H]1O [adenosine],Kd,[6]; [17],5 to 8 µM
